Results reported in PubChem BioAssay (NCI).
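1) Cells in 96-well plates. 2) Compound, 48 h, 5 concentrations. 3) Linear interpolation between surrounding doses. 4) Unreached endpoint = highest concentration. At the TGI there is no net growth.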

Experiments:
Assay in all cases: inhibition of tumour cell growth, NCI panel, 48 h
MCF7 breast = system: MCF7 breast
NCI-H226 lung = system: NCI-H226 lung
A498 renal = system: A498 renal
TK-10 renal = system: TK-10 renal
SK-OV-3 ovarian = system: SK-OV-3 ovarian
SW-620 colon = system: SW-620 colon
PC-3 prostate = system: PC-3 prostate
MDA-N = system: MDA-N
HOP-62 NSCLC = system: HOP-62 NSCLC
NCI-H460 lung = system: NCI-H460 lung
SK-MEL-28 melanoma = system: SK-MEL-28 melanoma
SN12C renal = system: SN12C renal
M14 melanoma = system: M14 melanoma
MALME-3M melanoma = system: MALME-3M melanoma
COLO 205 colon = system: COLO 205 colon
ACHN renal = system: ACHN renal
UACC-257 melanoma = system: UACC-257 melanoma
LOX IMVI melanoma = system: LOX IMVI melanoma
OVCAR-5 ovarian = system: OVCAR-5 ovarian
U251 CNS = system: U251 CNS

Row | SMILES | TGI (MCF7 breast) | TGI (NCI-H226 lung) | TGI (A498 renal) | TGI (TK-10 renal) | TGI (SK-OV-3 ovarian) | TGI (SW-620 colon) | TGI (PC-3 prostate) | TGI (MDA-N) | TGI (HOP-62 NSCLC) | TGI (NCI-H460 lung) | TGI (SK-MEL-28 melanoma) | TGI (SN12C renal) | TGI (M14 melanoma) | TGI (MALME-3M melanoma) | TGI (COLO 205 colon) | TGI (ACHN renal) | TGI (UACC-257 melanoma) | TGI (LOX IMVI melanoma) | TGI (OVCAR-5 ovarian) | TGI (U251 CNS)
1 | CN(C)CC1CN=C(NC(=O)Nc2ccccc2)O1 (stereo not given) | > 100 µM | > 100 µM | > 100 µM | > 100 µM | > 100 µM | > 100 µM | > 100 µM | > 100 µM | > 100 µM | > 100 µM | > 100 µM | > 100 µM | > 100 µM | > 100 µM | > 100 µM | > 100 µM | > 100 µM | > 100 µM | > 100 µM | > 100 µM
2 | N#CCCN(CCN(CCC#N)C(=O)Nc1ccccc1)C(=O)Nc1ccccc1 | > 100 µM | > 100 µM | > 100 µM | > 100 µM | > 100 µM | > 100 µM | > 100 µM | > 100 µM | 55 µM | > 100 µM | > 100 µM | > 100 µM | > 100 µM | > 100 µM | > 100 µM | > 100 µM | > 100 µM | > 100 µM | > 100 µM | > 100 µM
3 | COC(=O)c1ccc(NCc2cc(O)ccc2O)cc1 | 27.3 µM | 24.9 µM | 29.7 µM | 31.6 µM | 48.8 µM | 23.4 µM | 19.7 µM | 19 µM | 30.9 µM | 52.2 µM | 34.8 µM | 41.2 µM | 39.5 µM | 15.7 µM | 29 µM | 24 µM | 29.2 µM | 26.1 µM | 29.1 µM | 24.5 µM
4 | CC(=O)O[C@@H](C1C[C@@H](C)[C@H]2[C@@](O)(O1)[C@H](O)[C@@]1(C)C3=CC[C@H]4C(C)(C)[C@@H](OC5OCC(O)C(O)C5O)CC[C@@]45C[C@@]35CC[C@]21C)C(C)(C)O (stereo not given in full) | 50.3 µM | 45.9 µM | 63 µM | 69.5 µM | 63.9 µM | > 100 µM | 50.7 µM | 73.6 µM | 70.7 µM | 40.6 µM | 57 µM | 54.8 µM | > 100 µM | 51 µM | 48.4 µM | 47.2 µM | 38.4 µM | 42.4 µM | 56.6 µM | 36 µM
5 | COc1ccc(C(=O)Nc2ccc3oc(-c4ccccc4)nc3c2)cc1 | > 100 µM | > 100 µM | > 100 µM | > 100 µM | > 100 µM | > 100 µM | > 100 µM | > 100 µM | > 100 µM | > 100 µM | > 100 µM | > 100 µM | > 100 µM | > 100 µM | > 100 µM | > 100 µM | > 100 µM | > 100 µM | > 100 µM | > 100 µM
6 | CC(C)C(NC(=O)C(Cc1ccccc1)NC(=O)[C@H]1CCC[C@H]1NC(=O)C(N)Cc1ccc(O)cc1)C(N)=O (stereo not given in full) | > 100 µM | > 100 µM | > 100 µM | > 100 µM | > 100 µM | > 100 µM | > 100 µM | > 100 µM | > 100 µM | > 100 µM | > 100 µM | > 100 µM | > 100 µM | > 100 µM | > 100 µM | > 100 µM | > 100 µM | > 100 µM | > 100 µM | > 100 µM
7 | CCOP(=O)(OCC)/C(C#N)=C/c1ccnc2ccccc12 | > 100 µM | 55.9 µM | > 100 µM | > 100 µM | 82.7 µM | > 100 µM | 35.4 µM | 42.2 µM | > 100 µM | > 100 µM | > 100 µM | 88.2 µM | 47.6 µM | > 100 µM | 38.1 µM | > 100 µM | > 100 µM | > 100 µM | 51 µM | > 100 µM
8 | COP(=O)(OC)/C(=C\c1cn(C(c2ccccc2)(c2ccccc2)c2ccccc2)cn1)NC(C)=O | > 100 µM | > 100 µM | > 100 µM | > 100 µM | > 100 µM | > 100 µM | > 100 µM | > 100 µM | > 100 µM | > 100 µM | > 100 µM | > 100 µM | > 100 µM | > 100 µM | > 100 µM | > 100 µM | > 100 µM | > 100 µM | > 100 µM | > 100 µM
9 | CC(=O)OCC(Br)C1(C)CCC(C(C)(C)Br)O1 (stereo not given) | > 100 µM | > 100 µM | > 100 µM | > 100 µM | > 100 µM | > 100 µM | > 100 µM | > 100 µM | > 100 µM | > 100 µM | > 100 µM | > 100 µM | > 100 µM | > 100 µM | > 100 µM | > 100 µM | 45.2 µM | > 100 µM | > 100 µM | > 100 µM
10 | C=CCn1c(-c2ccc(-c3cs/c(=N\N=O)n3CC=C)cc2)cs/c1=N\N=O | > 100 µM | > 100 µM | > 100 µM | > 100 µM | > 100 µM | > 100 µM | > 100 µM | > 100 µM | > 100 µM | > 100 µM | > 100 µM | > 100 µM | > 100 µM | > 100 µM | > 100 µM | > 100 µM | > 100 µM | > 100 µM | > 100 µM | > 100 µM
11 | COc1ccc(CCNCCCC2c3ccccc3-c3ccccc32)cc1OC | 20.3 µM | 31.4 µM | 19.5 µM | 27.7 µM | 32.9 µM | 20.4 µM | 29.9 µM | 30.8 µM | 30 µM | 18.3 µM | 23.1 µM | 28.7 µM | 11.8 µM | 27 µM | 3.4 µM | 29.6 µM | 28.1 µM | 28.7 µM | 33.4 µM | 26.2 µM
12 | S=c1[nH]nc(NNc2ccccc2)n1Nc1ccccc1 | > 100 µM | > 96.6 µM | > 100 µM | > 100 µM | > 100 µM | > 100 µM | > 100 µM | > 100 µM | > 100 µM | > 54.6 µM | > 100 µM | > 100 µM | > 100 µM | > 100 µM | > 37.6 µM | > 100 µM | > 69.3 µM | 32.5 µM | > 100 µM | > 83.9 µM
